Assay results taken from patent publication US11466044B2 (WAYNE STATE UNIVERSITY, priority 2017, dated 2022).
Where a name gives a salt, the structure may show the parent alone. Read-outs that look alike come from different tables or passages of the source.

What was measured:
MRSA = assay: MIC by broth microdilution, MRSA isolates; assay type: cell-based; conditions: Staphylococcus aureus, MRSA, Table 1 (Example 3)
E coli wild type = assay: MIC by broth microdilution, wild type E coli; assay type: cell-based; conditions: for MIC: Escherichia coli
P aeruginosa = assay: MIC by broth microdilution, P aeruginosa isolates; assay type: cell-based, Pseudomonas aeruginosa; conditions: strain AG220 Pseudomonas aeruginosa ATCC27853; read-out: MIC AG220 P. aerugin
[1] = system: E coli carrying specific resistance determinants; assay: MIC by broth microdilution, E coli carrying specific resistance determinants; assay type: cell-based; conditions: for MIC: Escherichia coli
M. abscessus = assay: MIC by broth microdilution, M. abscessus; assay type: cell-based; conditions: Mycobacteroides abscessus
[2] = system: wild type bacterial ribosomes; assay: in-vitro translation assay, bacterial ribosomes; assay type: biochemical; conditions: for IC50: bacterial ribosome, Table 4 (Example 3), read-out: IC50 Bac; for selectivity for the bacterial ribosome over mitochondrial (wild type, A1555G mutant) and cytosolic ribosomes, in words: compared with the parent compound
Description: (§1) The antiribosomal activity of these compounds was investigated with cell-free translation assays using both wild type bacterial ribosomes and hybrid ribosomes carrying eukaryotic decoding A sites enabling the prediction of selectivity.

[3] = system: A1555G mutant mitochondrial ribosome (human chimeric); assay: in-vitro translation assay, human chimeric ribosomes, A1555G mutant mitochondrial decoding site; assay type: biochemical; conditions: Table 3 (Example 3)
Description: as §1

[4] = system: cytosolic ribosome (human chimeric); assay type: biochemical; conditions: for Selectivity for Binding to the Bacterial Ribosome over the Cytosolic Ribosome: Table 3 (Example 3); for IC50: cytosolic, Table 4 (Example 3), read-out: IC50 Cyt
Description: as §1

[5] = system: mitochondrial ribosome (human chimeric); assay type: biochemical; conditions: for Selectivity for Binding to the Bacterial Ribosome over the Mitochondrial Ribosome: Table 3 (Example 3); for IC50: mitochondrial, Table 4 (Example 3), read-out: IC50 Mit
Description: as §1

[6] = system: Klebsiella pneumonia AG215; assay: MIC by broth microdilution, Klebsiella pneumonia; assay type: cell-based; conditions: Klebsiella pneumoniae; strain AG215 Klebsiella pneumonia; read-out: MIC AG215 K. pneumon
[7] = system: Acinetobacter baumannii pittii AG225; assay: MIC by broth microdilution, Acinetobacter baumannii; assay type: cell-based; conditions: strain AG225 Acinetobacter baumannii pittii
[8] = system: Enterobacter cloacae AG290; assay: MIC by broth microdilution, Enterobacter cloacae; assay type: cell-based; conditions: strain AG290 Enterobacter cloacae; read-out: MIC AG290 E. cloacae
N. gonorrhoeae = assay: Disk diffusion, N. gonorrhoeae; assay type: cell-based; conditions: Neisseria gonorrhoeae
M. smegmatis SZ380 = assay: MIC by broth microdilution, M. smegmatis; conditions: Mycolicibacterium smegmatis
[9] = clinical isolate AG038, read-out: MIC MRSA AG038
[10] = clinical isolate AG039, read-out: MIC MRSA AG039
[11] = clinical isolate AG042, read-out: MIC MRSA AG042
[12] = AG006 Wild type, Table 2 (Example 3), read-out: MIC E coli AG006 Wild type
[13] = AG104 Wild type, Table 2 (Example 3), read-out: MIC E coli AG104 Wild type
[14] = ATCC25922, strain AG212 E. coli (ATCC25922), read-out: MIC AG212 E. coli
[15] = WT, Table 4 (Example 3), read-out: MIC E. coli WT
[16] = WT, Table 5 (Example 3), read-out: MIC E. coli WT
[17] = clinical isolate AG001, Table 1 (Example 3), read-out: MIC E coli AG001
[18] = clinical isolate AG003, Table 1 (Example 3), read-out: MIC E coli AG003
[19] = clinical isolate AG055, Table 1 (Example 3), read-out: MIC E coli AG055
[20] = read-out: MIC E coli AG106 AAC(2′)
[21] = read-out: MIC E. coli AAC(2′) AG106
[22] = read-out: MIC E. coli AAC(2′) pH434
[23] = read-out: MIC E. coli AG106 AAC(2′)-Ia
[24] = read-out: MIC E. coli pGB2armA armA
[25] = read-out: MIC E. coli pH434 AAC(2′)-Ib
[26] = ATCC19977, ATCC 19977 WT, Table 5 (Example 3), read-out: MIC M. abscessus ATCC 19977 WT
[27] = read-out: MIC M. abscessus engineered Δeis2
[28] = ATCC, Table 4 (Example 3), read-out: MIC M. abscessus ATCC
[29] = Clin. Isol., Table 4 (Example 3), read-out: MIC M. abscessus Clin. Isol.
[30] = SZ380, read-out: MIC M. smegmatis SZ380 WT, SZ380 WT, Table 5 (Example 3)
[31] = SZ380, read-out: MIC SZ380 M. smegmatis, strain SZ380 Mycobacterium smegmatis

Structure (SMILES): CNC1C(OC2C(N)CC(N)C(O)C2OC2OC(CO)C(OC3OC(CN)C(O)C(O)C3N)C2O)OC(CN)C(O)C1O (centres unmarked) [Compound 171, 2′-N-Methyl-neomycin acetate salt]
- MIC (MRSA; [9]): 0.25 to 0.5 µg/mL
- MIC (MRSA; [10]): > 32 µg/mL
- MIC (MRSA; [11]): > 32 µg/mL
- MIC (E coli wild type; [12]): 0.25 µg/mL
- MIC (E coli wild type; [13]): 0.5 µg/mL
- MIC (E coli wild type; [14]): 1 µg/mL
- MIC (E coli wild type; [15]): 0.5 µg/mL
- MIC (E coli wild type; [16]): 0.5 µg/mL
- MIC (E coli wild type; [17]): 1 µg/mL
- MIC (E coli wild type; [18]): 1 µg/mL
- MIC (E coli wild type; [19]): 1 µg/mL
- MIC (P aeruginosa): > 64 µg/mL
- MIC [1, 20]: 0.5 µg/mL
- MIC [1, 21]: 0.5 µg/mL
- MIC [1, 22]: 4 µg/mL
- MIC [1, 23]: 0.5 µg/mL
- MIC [1, 24]: 1 µg/mL
- MIC [1, 25]: 4 µg/mL
- MIC (M. abscessus; [26]): 0.25 µg/mL
- MIC (M. abscessus; [27]): 0.063 µg/mL
- MIC (M. abscessus; [28]): 0.25 µg/mL
- MIC (M. abscessus; [29]): 0.5 µg/mL
- IC50 [2]: 0.01 µM
- selectivity for the bacterial ribosome over mitochondrial (wild type, A1555G mutant) and cytosolic ribosomes, in words [2]: increased selectivity for the bacterial ribosome
- Selectivity for Binding to the Bacterial Ribosome over the Mutant Mitochondrial Ribosome [3]: 117
- Selectivity for Binding to the Bacterial Ribosome over the Cytosolic Ribosome [4]: 4000
- IC50 [4]: 37 µM
- Selectivity for Binding to the Bacterial Ribosome over the Mitochondrial Ribosome [5]: 483
- IC50 [5]: 4.7 µM
- MIC [6]: 0.5 µg/mL
- MIC [7]: 1 µg/mL
- MIC [8]: 0.5 to 1 µg/mL
- zone of inhibition at 25 nmol/disc (N. gonorrhoeae): 9 mm
- MIC (M. smegmatis SZ380; [30]): < 0.063 µg/mL
- MIC (M. smegmatis SZ380; [31]): < 0.0625 µg/mL

Structure (SMILES): NCC1OC(OC2C(N)CC(N)C(O)C2OC2OC(CO)C(OC3OC(CN)C(O)C(O)C3N)C2O)CC(O)C1O (centres unmarked) [Compound 173, 2′-Deamino-neomycin acetate salt]
- MIC (MRSA; [9]): 1 µg/mL
- MIC (MRSA; [10]): 32 µg/mL
- MIC (MRSA; [11]): 32 µg/mL
- MIC (E coli wild type; [12]): 1 µg/mL
- MIC (E coli wild type; [13]): 0.5 to 1 µg/mL
- MIC (E coli wild type; [14]): 1 µg/mL
- MIC (E coli wild type; [15]): 1 µg/mL
- MIC (E coli wild type; [16]): 1 µg/mL
- MIC (E coli wild type; [17]): 2 µg/mL
- MIC (E coli wild type; [18]): 1 to 2 µg/mL
- MIC (E coli wild type; [19]): 2 µg/mL
- antibacterial activity, in words (E coli wild type; MRSA and E coli, compared with the parent compound): little to no loss of antibacterial activity
- MIC (P aeruginosa): > 64 µg/mL
- effect of the AAC(2′) resistance determinant, in words ([1]; AAC(2′)): overcomes the effect of AAC(2′)
- MIC [1, 20]: 1 µg/mL
- MIC [1, 21]: 1 µg/mL
- MIC [1, 22]: 8 µg/mL
- MIC [1, 23]: 1 µg/mL
- MIC [1, 24]: 1 µg/mL
- MIC [1, 25]: 8 µg/mL
- MIC (M. abscessus; [26]): 4 µg/mL
- MIC (M. abscessus; [27]): 0.125 µg/mL
- MIC (M. abscessus; [28]): 4 µg/mL
- MIC (M. abscessus; [29]): 8 µg/mL
- IC50 [2]: 0.03 µM
- selectivity for the bacterial ribosome over mitochondrial (wild type, A1555G mutant) and cytosolic ribosomes, in words [2]: increased selectivity for the bacterial ribosome
- Selectivity for Binding to the Bacterial Ribosome over the Mutant Mitochondrial Ribosome [3]: 31
- Selectivity for Binding to the Bacterial Ribosome over the Cytosolic Ribosome [4]: 3188
- IC50 [4]: 85 µM
- Selectivity for Binding to the Bacterial Ribosome over the Mitochondrial Ribosome [5]: 831
- IC50 [5]: 22 µM
- MIC [6]: 0.5 µg/mL
- MIC [7]: 1 µg/mL
- MIC [8]: 1 µg/mL
- zone of inhibition at 25 nmol/disc (N. gonorrhoeae): 10 mm
- MIC (M. smegmatis SZ380; [30]): 0.25 µg/mL
- MIC (M. smegmatis SZ380; [31]): 0.25 µg/mL

Structure (SMILES): CCNC1C(OC2C(N)CC(N)C(O)C2OC2OC(CO)C(OC3OC(CN)C(O)C(O)C3N)C2O)OC(CN)C(O)C1O (centres unmarked) [Compound 172, 2′-N-Ethyl-neomycin acetate salt]
- MIC (MRSA; [9]): 0.5 µg/mL
- MIC (MRSA; [10]): > 32 µg/mL
- MIC (MRSA; [11]): > 32 µg/mL
- MIC (E coli wild type; [12]): 0.5 µg/mL
- MIC (E coli wild type; [13]): 0.5 µg/mL
- MIC (E coli wild type; [14]): 1 µg/mL
- MIC (E coli wild type; [15]): 0.5 to 1 µg/mL
- MIC (E coli wild type; [16]): 0.5 to 1 µg/mL
- MIC (E coli wild type; [17]): 1 to 2 µg/mL
- MIC (E coli wild type; [18]): 1 µg/mL
- MIC (E coli wild type; [19]): 1 µg/mL
- MIC (P aeruginosa): > 32 µg/mL
- MIC [1, 20]: 0.5 µg/mL
- MIC [1, 21]: 0.5 µg/mL
- MIC [1, 22]: 1 µg/mL
- MIC [1, 23]: 0.5 µg/mL
- MIC [1, 24]: 1 µg/mL
- MIC [1, 25]: 1 µg/mL
- MIC (M. abscessus; [26]): 0.25 µg/mL
- MIC (M. abscessus; [27]): 0.063 µg/mL
- MIC (M. abscessus; [28]): 0.25 µg/mL
- MIC (M. abscessus; [29]): 0.5 µg/mL
- IC50 [2]: 0.01 µM
- selectivity for the bacterial ribosome over mitochondrial (wild type, A1555G mutant) and cytosolic ribosomes, in words [2]: increased selectivity for the bacterial ribosome
- Selectivity for Binding to the Bacterial Ribosome over the Mutant Mitochondrial Ribosome [3]: 111
- Selectivity for Binding to the Bacterial Ribosome over the Cytosolic Ribosome [4]: 3111
- IC50 [4]: 43 µM
- Selectivity for Binding to the Bacterial Ribosome over the Mitochondrial Ribosome [5]: 850
- IC50 [5]: 11 µM
- MIC [6]: 0.5 µg/mL
- MIC [7]: 1 µg/mL
- MIC [8]: 0.5 to 1 µg/mL
- zone of inhibition at 25 nmol/disc (N. gonorrhoeae): 9 mm
- MIC (M. smegmatis SZ380; [30]): < 0.063 µg/mL
- MIC (M. smegmatis SZ380; [31]): < 0.0625 µg/mL
